Assay results taken from patent US6664231B1, “Anti-fungal peptides” (priority 1993, dated 2003).

System: endotoxin (E. coli O111:B4)
Test: Mouse experimental endotoxemia model
Format: in vivo
Settings: endotoxin 20 mg/kg, 7 days
Procedure: Domain III derived peptides are also tested for LPS neutralizing efficacy in an in vivo mouse experimental endotoxemia model. […] This was followed by a second intravenous injection of the peptide to be tested. Injections of saline were used in negative control mice. […] The efficacy of the peptides was measured by a decrease in endotoxemia-associated mortality in peptide-injected mice as compared with control mice. […] No animals survived in the saline control group.

With H-SKVKWLIQLFHKK-NH2 [XMP.284] the “protection from endotoxemia-associated mortality” value (0.5 mg/kg dose i.v., FIG. 9) was “significant protection” and the animals protected (1 mg/kg dose i.v.) was 14 of 15.
